Here are results for eight molecules from PubChem BioAssay (NCI).

Each structure is given as a SMILES string. Several values for one entry are separate records, joined by “and”; a condition that tells them apart may be missing. Equal entries are not always repeated.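 Briefly, cells in 96-well plates were exposed to five compound concentrations for 48 h, and endpoints were estimated by linear interpolation. Abbreviation: GI50, concentration required for 50% inhibition of growth. TGI is the concentration that stops growth completely.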 Some results are limits rather than exact numbers.

Assay in all cases: DTP human tumour cell line panel, 48 h
Experiment [1] relates to BT-549 breast.
For experiment [2], the system named is SF-268 CNS.
Experiment [3] deals with CAKI-1 renal.
Experiment [4] deals with MOLT-4 leukemia.
Experiment [5] has as its system HT29 colon.
Experiment [6] concerns SW-620 colon.
Experiment [7] relates to DU-145 prostate.
For experiment [8], the system named is OVCAR-8 ovarian.
The subject of experiment [9] is NCI-H226 lung.
The subject of experiment [10] is SF-539 CNS.

For `CN1C(=O)C(N=Nc2ccc([N+](=O)[O-])cc2)SC1=S` (stereo not given), the GI50 in experiment [1] is 4.45 µM and 6.28 µM; in experiment [2], 6.1 µM and 17.3 µM; in experiment [3] it was 1.18 µM and 3.88 µM; in [4] it was 5.82 µM and 5.81 µM; in experiment [5] it was 3.63 µM and 10.8 µM; in [6] it was 2.53 µM and 8.17 µM. Besides, the GI50 in experiment [7] is 7.11 µM and 22.1 µM; in experiment [8] it was 4.38 µM and 11 µM; in experiment [9], 21 µM and 18 µM; in experiment [10], 6.57 µM and 7.08 µM. The TGI in experiment [1] is 42.8 µM and 40.6 µM; in experiment [2] it was 99.5 µM and > 100 µM; in experiment [3] it was 7.8 µM and 50 µM; in experiment [4], greater than 100 µM; in experiment [5], 33.7 µM and > 100 µM; in experiment [6], greater than 100 µM. The concentration for total growth inhibition (TGI) in experiment [7] is 41.6 µM and > 100 µM; in experiment [8] it was greater than 100 µM; in [9], greater than 100 µM; in experiment [10], 58.1 µM and 70.4 µM.
`CCOC(=O)c1c(C)n([O-])c2cc(F)c(F)cc2[n+]1=O`: the GI50 was 1.84 µM in experiment [1]; 1.57 µM in experiment [2]; 1.63 µM in [3]; 0.541 µM in [4]; 0.516 µM in experiment [5]; 0.428 µM in [6]. Further, the GI50 in experiment [7] was 3.27 µM; in [8], 0.88 µM; in experiment [9], 1.94 µM; in experiment [10], 3.91 µM. Also, the TGI in [1] stood at 3.64 µM; in experiment [2], 3.69 µM; in [3] it was 3.04 µM; in [4], 6.62 µM; in experiment [5] it was 3.19 µM; in experiment [6], 1.57 µM. For the same molecule, the TGI is 9.01 µM in [7], 2.47 µM in [8], 3.94 µM in [9] and 8.84 µM in [10].
`Cc1ccc(C2=NN(c3ccc(S(=O)(=O)NC(=O)NCc4ccccc4)cc3)C(c3ccc(N(C)C)cc3)C2)c(C)c1` (stereo not given): the GI50 in [1] is 3.94 µM; in [2], 4.37 µM; in experiment [3], 3.45 µM; in experiment [4] it was 3.65 µM; in experiment [5], 4.53 µM; in experiment [6], 3.94 µM. Also, the GI50 is 4.6 µM in [7], 3.81 µM in experiment [8], 3.91 µM in [9] and 2.43 µM in experiment [10]. Moreover, the total growth inhibition concentration (TGI) in experiment [1] came to 19.9 µM; in [2], 45.1 µM; in [3] it was 87.1 µM; in [4] it was 73.8 µM; in [5], 19.1 µM; in [6], 23.7 µM. In addition, the TGI in [7] is 16.6 µM; in experiment [8] it was greater than 100 µM; in experiment [9], 15.9 µM; in experiment [10], 6.02 µM.
For `Cc1cc(S(=O)(=O)Nc2nc3ccccc3c(=O)n2Cc2ccco2)c(S)cc1Cl`, the GI50 in [1] was 15.7 µM; in [2] it was 40.6 µM; in experiment [3] it was 44.1 µM; in experiment [4] it was 18.6 µM; in experiment [5], 46.2 µM; in experiment [6], 30.7 µM. The GI50 was 30.7 µM in experiment [7], 57.7 µM in [8], 83.6 µM in experiment [9] and 31.5 µM in experiment [10]. The total growth inhibition concentration (TGI) in [1] was 51.9 µM; in experiment [2], greater than 100 µM; in experiment [3], greater than 100 µM; in experiment [4] it was greater than 100 µM; in experiment [5], greater than 100 µM; in experiment [6] it was greater than 100 µM. The concentration for total growth inhibition (TGI) in experiment [7] was greater than 100 µM; in experiment [8] it was greater than 100 µM; in [9] it was greater than 100 µM; in experiment [10] it was 84.5 µM.
With `CCOC(=O)c1c(-c2ccccc2)n2c(=O)cc(C)c3c(O)c(O)cc1c32`, the GI50 in [1] was 7.08 µM; in [2], 3.35 µM; in experiment [3], 9.84 µM; in experiment [4] it was 3.81 µM; in [5], 7.18 µM; in experiment [6], 4.74 µM. Also, the GI50 in experiment [7] is 10.5 µM; in [8], 4.23 µM; in experiment [9], 11.4 µM; in experiment [10], 4.56 µM. The TGI in experiment [1] was found to be 24.1 µM; in experiment [2] it was 20.2 µM; in [3], 36.2 µM; in experiment [4], 17.7 µM; in [5], 84 µM; in [6], 18.5 µM. Moreover, the TGI is 23.9 µM in experiment [7], 22.1 µM in [8], 42.1 µM in experiment [9] and 25.1 µM in experiment [10].
Consider `O=C(O)CN1C(=O)OC(c2ccccc2)C1=O` (stereo not given), for which the TGI in experiment [1], in [2], in experiment [3], in experiment [4], in [5] and in experiment [6] was greater than 100 µM throughout. The TGI in [7], in experiment [8], in [9] and in experiment [10] was greater than 100 µM in each case.
Consider `CCCCCc1cc(/C=C2/N=C(c3ccc[nH]3)C=C2OC)[nH]c1C`, for which the TGI in experiment [1] turned out to be 0.292 µM; in [2], 1.13 µM; in experiment [3], 0.0168 µM; in experiment [4], 0.134 µM; in experiment [5], 0.143 µM; in experiment [6], 0.206 µM. For the same molecule, the TGI turned out to be 1.48 µM in experiment [7], 1.25 µM in experiment [8], 1.79 µM in experiment [9] and 0.177 µM in experiment [10].
With `C=C(C)COc1ccc2c(c1)CCC1C2CCC2(C)C(=O)/C(=N/O)CC12` (stereo not given), the TGI in experiment [1] came out at 21.2 µM; in experiment [2], 23.3 µM; in experiment [3], 10.2 µM; in experiment [4] it was 6.05 µM; in experiment [5], 2.72 µM; in [6] it was 9.94 µM. For the same molecule, the concentration for total growth inhibition (TGI) in experiment [7] worked out at 7.93 µM; in [8] it was 24.1 µM; in experiment [9] it was 26.6 µM; in experiment [10], 26.3 µM.
